Tests used:
[1] = target: T1, binding between HGF and c-Met (Homo sapiens, UniProt P14210); experiment: ELISA-like HGF-c-Met binding assay on plate with immobilized recombinant c-Met; settings: NC set to 1
T1 construct: purchased R&D Systems
Procedure: The effect of the addition of glutathione trisulfide (GSSSG) or lipoic acid trisulfide (LA-SSS) on the binding (affinity) between HGF and c-Met was examined by the following method. GSSSG or LA-SSS was added to recombinant HGF (R&D Systems) at a molar ratio of 1:4000 (HGF:GSSSG or HGF:LA-SSS) (FIG. 1(A)) or 1:8000 (HGF:GSSSG or HGF:LA-SSS) (FIG. 1(B)). An ELISA-like HGF-c-Met binding assay was performed using a 96-well cluster plate with immobilized recombinant c-Met (R&D Systems) (Tatsumni et al. 2002; the principle of this method is schematically shown in FIG. 1(C)). Table 2 and FIGS. 1(A) and (B) show the relative values of each experimental group, with the A450-535 nm (absorbance at 450 nm minus absorbance at 535 nm) of the negative control (NC) set to 1.
In Table 2 and FIG. 1, NC: negative control (no addition), PC: positive control (HGF only addition), PC′: addition of solvent used to dissolve GSSSG and HGF, A′: addition of solvent used to dissolve GSSSG, GSSSG, and HGF (1 ng/ml), A: addition of solvent used to dissolve GSSSG and GSSSG, PC″: addition of solvent used to dissolve LA-SSS and HGF, B′: addition of solvent used to dissolve LA-SSS, LA-SSS, and HGF (1 ng/ml), B: addition of solvent used to dissolve LA-SSS and LA-SSS.

[2] = system: muscle stem cells (satellite cells); experiment: Muscle stem cell (satellite cell) activation by HGF, BrdU pulse labeling; type: cell-based, rat; settings: for Percentage of BrdU-positive cells (%): NC 46.9; for percentage of BrdU-positive cells / enhancing effect on muscle stem cell activation by HGF: HGF 3 ng/ml; for percentage of BrdU-positive cells: trisulfide at 4000 or 8000 moles per 1 mole HGF, vs. NC, p<0.05; for enhancing effect on muscle stem cell activation by HGF: trisulfide at 8000 moles per 1 mole HGF
Procedure: The effect of the addition of GSSSG or LA-SSS on the muscle stem cell activation effect of HGF (3 ng/ml) was examined by the following method. GSSSG or LA-SSS was added to recombinant HGF (R&D Systems) at a molar ratio of 1:4000 (HGF:GSSSG or HGF:LA-SSS) (FIG. 2(A)) or 1:8000 (HGF:GSSSG or HGF:LA-SSS) (FIG. 2(B)). The activation effect of HGF was measured using a culture system of muscle stem cells (satellite cells). Quiescent muscle stem cells were isolated from the skeletal muscle of 8-9-month-old mature rats in accordance with a modified method of Allen et al. (1997) (Tatsumi et al. 2006), and cultured for 24 hours in DMEM containing 10% normal horse serum (DMEM-10% HS, pH 7.2). HGF mixed with GSSSG or LA-SSS was added to a final concentration of 3 ng/ml, and after further culture for 24 hours, the activation rate of muscle stem cells was measured by the bromodeoxyuridine (BrdU) pulse labeling method. Cells that had incorporated BrdU were visualized with an anti-BrdU monoclonal antibody, and the percentage of positive cells was used as an indicator of muscle stem cell activation (Tatsumi et al. 1998).
In FIG. 2, NC: negative control (no addition), PC: positive control (HGF only addition), A′: addition of GSSSG and HGF (3 ng/ml), A: addition of GSSSG, B′: addition of LA-SSS and HGF (3 ng/ml), B: addition of LA-SSS.
The effect of the addition of GSSSG or LA-SSS on the muscle stem cell activation effect of HGF (1 ng/ml) was examined in the same manner as in Example 2, except that the final concentration of HGF was 1 ng/ml instead of 3 ng/ml.
In Table 3 and FIG. 4, NC: negative control (no addition), PC′: positive control (HGF (I ng/ml) only addition), A′: addition of GSSSG and HGF (I ng/ml), A: addition of GSSSG, B′: addition of LA-SSS and HGF (1 ng/ml), B: addition of LA-SSS, PC: positive control (HGF (3 ng/ml) only addition).

[3] = 1:4000 series, trisulfide and its solvent without HGF
[4] = 1:8000 series, trisulfide and its solvent without HGF
[5] = HGF:A,B molar ratio 1:4000 series, HGF 1 ng/mL present, PC′/PC″ = HGF plus solvent only
[6] = HGF:A,B molar ratio 1:8000 series, HGF 1 ng/mL present, PC′/PC″ = HGF plus solvent only
[7] = HGF 1 ng/ml present, trisulfide at 1:8000 molar ratio, PC′ = HGF 1 ng/ml only

T1 sequence (P14210 32-494 limits assumed): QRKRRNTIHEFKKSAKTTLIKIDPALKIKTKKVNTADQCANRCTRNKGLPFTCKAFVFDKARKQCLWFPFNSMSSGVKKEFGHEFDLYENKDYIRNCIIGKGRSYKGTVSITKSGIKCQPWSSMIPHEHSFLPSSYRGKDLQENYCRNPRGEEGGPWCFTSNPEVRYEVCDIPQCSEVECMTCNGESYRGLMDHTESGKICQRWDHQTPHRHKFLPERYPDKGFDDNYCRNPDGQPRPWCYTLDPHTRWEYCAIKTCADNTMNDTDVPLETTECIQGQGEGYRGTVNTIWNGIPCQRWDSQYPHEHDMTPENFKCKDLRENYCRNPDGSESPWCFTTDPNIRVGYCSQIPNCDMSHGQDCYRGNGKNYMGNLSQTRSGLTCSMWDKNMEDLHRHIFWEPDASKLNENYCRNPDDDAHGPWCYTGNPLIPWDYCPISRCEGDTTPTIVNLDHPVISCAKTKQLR

Compound	A450-535 um (Relative units) (Average value) [1, 3]	A450-535 um (Relative units) (Average value) [1, 4]	A450-535 um (Relative units) (Average value) [1, 5]	A450-535 um (Relative units) (Average value) [1, 6]	Percentage of BrdU-positive cells (%) [2, 7]	percentage of BrdU-positive cells [2]	enhancing effect on muscle stem cell activation by HGF [2]	Percentage of BrdU-positive cells (%) ([2]; trisulfide alone, without HGF)	also measured
O=C(O)CCCCC1CCSSS1 (stereo not drawn) [LA-SSS, lipoic acid trisulfide]	1.28	1.14	increased	significantly increased	significantly increased	significantly increased	not observed	48.8	A450-535 um (Relative units) (Average value) ([1]; HGF:A,B molar ratio 1:4000 series, HGF 1 ng/mL present, PC′/PC″ = HGF plus solvent only, listed as B'): 9.55 Relative units; A450-535 um (Relative units) (Average value) ([1]; HGF:A,B molar ratio 1:8000 series, HGF 1 ng/mL present, PC′/PC″ = HGF plus solvent only, listed as B′): 19.60 Relative units; Percentage of BrdU-positive cells (%) ([2]; HGF 1 ng/ml present, trisulfide at 1:8000 molar ratio, PC′ = HGF 1 ng/ml only, listed as B′): 64.2%
N[C@@H](CCC(=O)N[C@@H](CSSSC[C@H](NC(=O)CC[C@H](N)C(=O)O)C(=O)NCC(=O)O)C(=O)NCC(=O)O)C(=O)O [GSSSG, glutathione trisulfide]	1.21	1.16	increased	significantly increased	increased	significantly increased	not observed	47.5	A450-535 um (Relative units) (Average value) ([1]; HGF:A,B molar ratio 1:4000 series, HGF 1 ng/mL present, PC′/PC″ = HGF plus solvent only, listed as A′): 9.67 Relative units; A450-535 um (Relative units) (Average value) ([1]; HGF:A,B molar ratio 1:8000 series, HGF 1 ng/mL present, PC′/PC″ = HGF plus solvent only, listed as A′): 11.22 Relative units; Percentage of BrdU-positive cells (%) ([2]; HGF 1 ng/ml present, trisulfide at 1:8000 molar ratio, PC′ = HGF 1 ng/ml only, listed as A′): 57.5%
HGF: recombinant hepatocyte growth factor (R&D Systems); positive control, alone or with trisulfide solvent	–	–	–	–	significantly increased	–	–	–	A450-535 um (Relative units) (Average value) ([1]; HGF:A,B molar ratio 1:4000 series, HGF 1 ng/mL present, PC′/PC″ = HGF plus solvent only, listed as PC′): 9.39 Relative units; A450-535 um (Relative units) (Average value) ([1]; HGF:A,B molar ratio 1:4000 series, HGF 1 ng/mL present, PC′/PC″ = HGF plus solvent only, listed as PC″): 9.00 Relative units; A450-535 um (Relative units) (Average value) ([1]; HGF:A,B molar ratio 1:8000 series, HGF 1 ng/mL present, PC′/PC″ = HGF plus solvent only, listed as PC′): 10.21 Relative units; A450-535 um (Relative units) (Average value) ([1]; HGF:A,B molar ratio 1:8000 series, HGF 1 ng/mL present, PC′/PC″ = HGF plus solvent only, listed as PC″): 10.04 Relative units; A450-535 um (Relative units) (Average value) ([1]; positive control, HGF only addition): 9.85 Relative units; Percentage of BrdU-positive cells (%) ([2]; HGF 1 ng/ml present, trisulfide at 1:8000 molar ratio, PC′ = HGF 1 ng/ml only, listed as PC′): 55.3%; Percentage of BrdU-positive cells (%) ([2]; HGF 3 ng/ml only addition): 65.9%

— US20260240836A1, “ENHANCER OF PHYSIOLOGICAL ACTIVITY OF HEPATOCYTE GROWTH FACTOR” (KYOWA HAKKO BIO CO., LTD., priority 2023, published 2026)
